According to patent US9902725B2, “Heterocyclic derivatives as RORgamma modulators” (GENFIT, priority 2014, dated 2018):

Key:
[1] = target: T1, RORγt ligand-binding domain (RORγt-LBD) (Homo sapiens, UniProt P51449); test: Time-resolved FRET (TR-FRET) RORγt coactivator assay; assay type: biochemical; conditions: GST-RORγ-LBD, biotinylated RIP140 peptide, coactivator displacement
T1 construct: 20 nM recombinantly expressed RORγ-LBD fused to GST
T1 sequence (P51449 269-508 limits assumed): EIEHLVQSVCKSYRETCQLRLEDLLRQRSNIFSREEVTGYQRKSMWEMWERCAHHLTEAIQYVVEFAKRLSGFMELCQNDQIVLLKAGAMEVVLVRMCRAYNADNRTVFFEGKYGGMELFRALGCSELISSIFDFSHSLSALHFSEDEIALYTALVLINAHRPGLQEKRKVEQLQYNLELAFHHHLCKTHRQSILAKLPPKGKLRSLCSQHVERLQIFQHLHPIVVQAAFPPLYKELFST

human RORγt = target: T2, human RORγt (Homo sapiens, UniProt P51449); test: IL-17 secretion from EL4 murine lymphoma overexpressing human RORγt; assay type: cell-based; design: expressed in transfected cells; host or cells: EL-4 murine lymphoma; conditions: IL-17 secretion inhibition, PMA and ionomycin stimulation, 24 h
T2 sequence (P51449 1-497 isoform P51449-2): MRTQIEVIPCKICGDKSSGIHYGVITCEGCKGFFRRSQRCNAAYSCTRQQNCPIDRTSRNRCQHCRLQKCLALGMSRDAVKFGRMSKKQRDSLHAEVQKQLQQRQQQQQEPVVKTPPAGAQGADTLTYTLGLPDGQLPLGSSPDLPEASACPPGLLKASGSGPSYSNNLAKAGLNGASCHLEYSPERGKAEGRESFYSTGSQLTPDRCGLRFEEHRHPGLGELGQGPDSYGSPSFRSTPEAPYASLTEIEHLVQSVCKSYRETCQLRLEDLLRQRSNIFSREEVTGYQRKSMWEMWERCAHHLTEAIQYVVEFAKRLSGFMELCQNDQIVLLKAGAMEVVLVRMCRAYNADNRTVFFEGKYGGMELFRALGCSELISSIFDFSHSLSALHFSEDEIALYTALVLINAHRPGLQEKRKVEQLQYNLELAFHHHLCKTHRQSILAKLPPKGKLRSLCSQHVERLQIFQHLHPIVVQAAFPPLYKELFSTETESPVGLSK
Protocol: Murine EL-4 lymphoma cell line overexpressing human RORγt was used in this functional assay to assess compound ability to inhibit IL-17 cytokine secretion.
EL-4 cells are maintained in a standard culture medium RPMI supplemented with 10% fetal calf serum, 1% sodium pyruvate, 1% essential amino acids and 1% antibiotics at 37° C. in a humidified atmosphere of 5% CO2 and 95% air. Culture medium was changed every 2 days. EL4 cells were transfected with a plasmid encoding hRORγt (sequence identical to published sequence NM 001001523). […] Briefly, 1 μg of DNA/1 million cells was served to transfect EL-4 cells. Cell/DNA suspension was transferred into certified cuvette and the electroporation of RORγt plasmid was carried out using appropriate Nucleofector® program.
Cells were seeded in 96 well plates at a density of 150000 cells/well then treated with compounds of this invention at indicated concentrations and incubated for 24 hours at 37° C. in a humidified atmosphere of 5% CO2 and 95% air. EL-4 cells were pretreated with test compounds (RORγ modulators) and stimulated with PMA (10 ng/mL) and ionomycin (1 μM final concentration) in the presence of test compound concentrations for additional 24 h at 37° C. in a humidified atmosphere of 5% CO2 and 95% air. Subsequently, supernatants were collected (after centrifugation at 300 g for 10 minutes) to determine the concentrations of IL-17 by HTRF (CisBio, France) or ELISA (R&D Systems Europe) according to the manufacturer's protocols.

SMILES	IC50 [1]	IC50 (human RORγt)
Cc1cc(Br)ccc1C(NC(=O)Cc1ccc2[nH]cc(CCC(=O)OC(C)(C)C)c2c1)c1ccccc1 (centres unmarked) [Cpd. 43, tert-butyl 3-[5-({[(4-bromo-2-methylphenyl)(phenyl)methyl]carbamoyl}methyl)-1H-indol-3-yl]propanoate]	1000 to 10000 nM	10000 to 30000 nM
CC(C)(C)OC(=O)CCc1c[nH]c2ccc(CC(=O)NC(c3ccccc3)c3ccc(C(F)(F)F)cc3N3CCCC3)cc12 (centres unmarked) [Cpd. 47, tert-butyl 3-{5-[({phenyl[2-(pyrrolidin-1-yl)-4-(trifluoromethyl)phenyl]methyl}carbamoyl)methyl]-1H-indol-3-yl}propanoate]	1000 to 10000 nM	1000 to 10000 nM
CC(C)(C)OC(=O)CCc1c[nH]c2ccc(CC(=O)NC(c3ccccc3)c3ccc(Br)cc3N3CCCC3)cc12 (centres unmarked) [Cpd. 49, tert-butyl 3-{5-[({[4-bromo-2-(pyrrolidin-1-yl)phenyl](phenyl)methyl}carbamoyl)methyl]-1H-indol-3-yl}propanoate]	1000 to 10000 nM	1000 to 10000 nM
CC(C)(C)OC(=O)CCc1c[nH]c2ccc(CC(=O)NC(c3ccccc3)c3ccccc3N3CCCC3)cc12 (centres unmarked) [Cpd. 78, tert-butyl 3-{5-[({phenyl[2-(pyrrolidin-1-yl)phenyl]methyl}carbamoyl)methyl]-1H-indol-3-yl}propanoate]	1000 to 10000 nM	1000 to 10000 nM
Cc1ccc(C(NC(=O)Cc2ccc3[nH]cc(CCC(=O)O)c3c2)c2ccccc2)c2[nH]ccc12 (centres unmarked) [compound 229, 3-[5-({[(4-methyl-1H-indol-7-yl)(phenyl)methyl]carbamoyl}methyl)-1H-indol-3-yl]propanoic acid]	1000 to 10000 nM	–
N=C(N)NC(=O)CCc1c[nH]c2ccc(CC(=O)NC(c3ccccc3)c3ccccc3N3CCCCC3)cc12 (centres unmarked) [compound 235, 1-{2-[(2-{3-[2-(carbamimidoylcarbamoyl)ethyl]-1H-indol-5-yl}acetamido)(phenyl)methyl]phenyl}piperidin-1-ium chloride]	1000 to 10000 nM	–
Cc1cc(C(NC(=O)Cc2ccc3[nH]cc(CCC(=O)O)c3c2)c2ccccc2N2CCCCC2)oc1C (centres unmarked) [compound 253, 3-[5-({[(4,5-dimethylfuran-2-yl)[2-(piperidin-1-yl)phenyl]methyl]carbamoyl}methyl)-1H-indol-3-yl]propanoic acid]	< 1000 nM	–
Cc1ccc(C(NC(=O)Cc2ccc3[nH]cc(CCC(=O)O)c3c2)c2ccccc2OC(C)C)o1 (centres unmarked) [compound 255, 3-[5-({[(5-methylfuran-2-yl)[2-(propan-2-yloxy)phenyl]methyl]carbamoyl}methyl)-1H-indol-3-yl]propanoic acid]	< 1000 nM	–
CON(C)C(=O)Cc1c[nH]c2ccc(CC(=O)NC(c3ccccc3)c3ccccc3N3CCCCC3)cc12 (centres unmarked) [compound 258, N-methoxy-N-methyl-2-{5-[({phenyl[2-(piperidin-1-yl)phenyl]methyl}carbamoyl)methyl]-1H-indol-3-yl}acetamide]	< 1000 nM	–
CC(C)CC(NC(=O)Nc1ccc2[nH]cc(CCC(=O)OC(C)(C)C)c2c1)c1ccccc1N1CCCCC1 (centres unmarked) [compound 262, tert-butyl 3-{5-[({3-methyl-1-[2-(piperidin-1-yl)phenyl]butyl}carbamoyl)amino]-1H-indol-3-yl}propanoate]	1000 to 10000 nM	–
Cc1ccc(C(NC(=O)Cc2ccc3[nH]cc(CCC(=O)OC(C)(C)C)c3c2)c2ccccc2)c(N2CCN(Cc3ccccc3)CC2)c1 (centres unmarked) [compound 263, tert-butyl 3-{5-[({[2-(4-benzylpiperazin-1-yl)-4-methylphenyl](phenyl)methyl}carbamoyl)methyl]-1H-indol-3-yl}propanoate]	< 1000 nM	–

Second part, the compound after the results:

IC50 [1]	IC50 (human RORγt)	SMILES
< 1000 nM	1000 to 10000 nM	CC(C)(C)OC(=O)CCc1c[nH]c2ccc(CC(=O)NC(c3ccccc3)c3ccc(C#N)cc3N3CCCC3)cc12 (centres unmarked) [Cpd. 59, tert-butyl 3-{5-[({[4-cyano-2-(pyrrolidin-1-yl)phenyl](phenyl)methyl}carbamoyl)methyl]-1H-indol-3-yl}propanoate]
< 1000 nM	< 1000 nM	COC(=O)Cc1c[nH]c2ccc(CC(=O)NC(c3ccccc3)c3ccc(C)cc3N3CCCC3)cc12 (centres unmarked) [Cpd. 64, methyl 2-{5-[({[4-methyl-2-(pyrrolidin-1-yl)phenyl](phenyl)methyl}carbamoyl)methyl]-1H-indol-3-yl}acetate]
< 1000 nM	1000 to 10000 nM	Cc1ccc(C(NC(=O)Cc2ccc3[nH]cc(CCC(=O)OC(C)(C)C)c3c2)c2ccccc2)c(N2CCCCC2)c1 (centres unmarked) [Cpd. 76, tert-butyl 3-{5-[({[4-methyl-2-(piperidin-1-yl)phenyl](phenyl)methyl}carbamoyl)methyl]-1H-indol-3-yl}propanoate]
< 1000 nM	1000 to 10000 nM	COc1ccc(C(NC(=O)Cc2ccc3[nH]cc(CCC(=O)OC(C)(C)C)c3c2)c2ccccc2)c(C)c1 (centres unmarked) [Cpd. 82, tert-butyl 3-[5-({[(4-methoxy-2-methylphenyl)(phenyl)methyl]carbamoyl}methyl)-1H-indol-3-yl]propanoate]
< 1000 nM	1000 to 10000 nM	COC(=O)Cc1c[nH]c2ccc(CC(=O)NC(c3ccccc3)c3ccc(Cl)cc3N3CCCC3)cc12 (centres unmarked) [Cpd. 84, methyl 2-{5-[({[4-chloro-2-(pyrrolidin-1-yl)phenyl](phenyl)methyl}carbamoyl)methyl]-1H-indol-3-yl}acetate]
< 1000 nM	–	O=C(O)CCCC(=O)c1c[nH]c2ccc(CC(=O)NC(c3ccccc3)c3ccccc3N3CCCCC3)cc12 (centres unmarked) [compound 215, 5-oxo-5-{5-[({phenyl[2-(piperidin-1-yl)phenyl]methyl}carbamoyl)methyl]-1H-indol-3-yl}pentanoic acid]
< 1000 nM	–	O=C(O)CCc1n[nH]c2ccc(CC(=O)NC(c3ccccc3)c3ccccc3N3CCCCC3)cc12 (centres unmarked) [compound 237, 3-{5-[({phenyl[2-(piperidin-1-yl)phenyl]methyl}carbamoyl)methyl]-1H-indazol-3-yl}propanoic acid]
< 1000 nM	–	CC(C)CC(NC(=O)Cc1ccc2[nH]cc(CCC(=O)O)c2c1)c1ccccc1OC(C)C (centres unmarked) [compound 241, 3-{5-[({3-methyl-1-[2-(propan-2-yloxy)phenyl]butyl}carbamoyl)methyl]-1H-indol-3-yl}propanoic acid]
< 1000 nM	–	CCOc1ccccc1C(CC(C)C)NC(=O)Cc1ccc2[nH]cc(CCC(=O)O)c2c1 (centres unmarked) [compound 243, 3-[5-({[1-(2-ethoxyphenyl)-3-methylbutyl]carbamoyl}methyl)-1H-indol-3-yl]propanoic acid]
< 1000 nM	–	CC(C)CCC(NC(=O)Cc1ccc2[nH]cc(CCC(=O)O)c2c1)c1ccccc1N1CCCCC1 (centres unmarked) [compound 245, 3-{5-[({4-methyl-1-[2-(piperidin-1-yl)phenyl]pentyl}carbamoyl)methyl]-1H-indol-3-yl}propanoic acid]
< 1000 nM	–	CCOc1ccc(C(NC(=O)Cc2ccc3[nH]cc(CCC(=O)O)c3c2)c2ccccc2)c(OCC)c1 (centres unmarked) [compound 247, 3-[5-({[(2,4-diethoxyphenyl)(phenyl)methyl]carbamoyl}methyl)-1H-indol-3-yl]propanoic acid]
< 1000 nM	–	Cc1ccc(C(NC(=O)Cc2ccc3[nH]cc(CCC(=O)O)c3c2)c2ccccc2)c(N2CCCCCC2)c1 (centres unmarked) [compound 251, 3-{5-[({[2-(azepan-1-yl)-4-methylphenyl](phenyl)methyl}carbamoyl)methyl]-1H-indol-3-yl}propanoic acid]
